Results: patent US20240325353A1, “COMPOUND FOR TREATMENT OF COGNITIVE DISORDERS” (Syndesi Therapeutics SA, priority 2021, published 2024)
Values joined by “and” are separate entries in the source; they are usually repeats but may differ in a detail not shown here. Identical values can stand only once.

How the values were obtained:
[1] = molecular target: T1, synaptic vesicle glycoprotein 2A (Homo sapiens, UniProt Q7L0J3); test: [11C]-UCB-J PET receptor occupancy after single oral dose, healthy male subjects, with PK/occupancy model; format: in vivo; settings: for receptor occupancy: individual subjects
T1 construct: from tissue; host or cells: brain of living healthy male subjects (PET)
T1 sequence (Q7L0J3 whole entry): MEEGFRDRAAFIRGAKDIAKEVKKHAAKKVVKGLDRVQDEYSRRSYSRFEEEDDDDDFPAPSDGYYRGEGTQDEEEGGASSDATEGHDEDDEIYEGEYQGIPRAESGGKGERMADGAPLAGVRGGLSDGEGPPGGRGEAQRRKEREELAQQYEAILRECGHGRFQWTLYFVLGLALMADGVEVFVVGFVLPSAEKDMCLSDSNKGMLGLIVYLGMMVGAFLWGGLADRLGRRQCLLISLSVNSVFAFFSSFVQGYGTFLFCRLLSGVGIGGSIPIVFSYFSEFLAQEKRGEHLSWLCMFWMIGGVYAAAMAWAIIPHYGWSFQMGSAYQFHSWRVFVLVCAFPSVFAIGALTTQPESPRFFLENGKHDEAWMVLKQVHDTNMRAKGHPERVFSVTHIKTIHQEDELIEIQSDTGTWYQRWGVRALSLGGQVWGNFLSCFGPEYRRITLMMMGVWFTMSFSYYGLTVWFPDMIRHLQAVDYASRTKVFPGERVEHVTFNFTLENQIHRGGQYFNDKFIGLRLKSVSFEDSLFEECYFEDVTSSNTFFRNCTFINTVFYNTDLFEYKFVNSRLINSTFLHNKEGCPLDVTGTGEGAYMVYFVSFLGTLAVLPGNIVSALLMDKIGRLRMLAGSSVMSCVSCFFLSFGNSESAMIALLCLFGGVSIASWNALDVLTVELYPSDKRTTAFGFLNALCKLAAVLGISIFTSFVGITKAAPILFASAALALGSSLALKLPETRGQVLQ
Protocol: All images were acquired using the PET/MR Scanner: GE Signa TOF PET-MR 3 Tesla with software version MP26. As gamma counter, a 1480 Wizard well type gamma counter met 3-inch NaI crystal was used.
[^11C]-UCB-J is a PET tracer for imaging the synaptic vesicle glycoprotein 2A in the human brain. [^11C]-UCB-J is (4R)-1-{[3-(^11C)Methylpyridin-4-yl]methyl}-4-(3,4,5-trifluorophenyl)pyrrolidin-2-one.
Participants arrived approximately 90 minutes prior to the scheduled scan. This allowed the positioning of all necessary peripheral catheters before the start of the PET scan. Prior to PET imaging, at the PET centre, an indwelling venous cannula was inserted into an antecubital vein of the forearm to inject the radioligand. When required, an indwelling arterial catheter was placed in the radial artery of the opposite arm (if not feasible, can be in same arm) by a trained physician after numbing the area with a local anaesthetic prior to placement to withdraw blood for the measurement of the PET input function. On each PET scan day, no more than 3 skin penetrations per arm and one arterial penetration per arm were permitted before trying in the other arm. The venous catheter was used for the injection of [^11C]-UCB-J. [^11C]UCB-J was administered as an i.v. bolus into the antecubital vein over approximately 20 seconds. The tracer volume was between 6 ml and 12 ml. With the pump system configured to inject 0.33 ml per second, tracer injection time varied between 18 sec and 36 sec. The arterial catheter was used for collection of arterial blood samples and no participant received more than two arterial catheterizations during their participation in the study. An arterial catheter was maintained for up to 2 days depending on evaluation by medical staff. In case two arterial catheters were placed during the study conduct, then placement in alternate wrists was done. If the medical staff decided to remove an arterial catheter at any given time, a new one was placed for a next scan taking into account that no more than two arterial catheterizations per participant were allowed. Participants were asked to void their bladder before the start of each PET scan. Participants were positioned in the PET scanner so that scans were acquired in 3D list-mode in one bed position and the entire brain volume was included in the field of view. At screening and simultaneous with the PET acquisition, both a 3D volumetric T1-weighted BRAVO sequence (plane: sagittal; TE: 3.2 ms; TR: 8.5 ms; TI: 450 ms; Flip Angle: 12; Receiver Bandwidth: 31.2; NEX: 1; voxelsize: 1×1×1 mm) and 3D T2-weighted CUBE FLAIR sequence (plane: sagittal direction; TE: 137 ms; #echoes: 1; echo train length: 190; TR: 8500 ms; […]; Receiver Bandwidth: 31.25; NEX: 1; voxelsize: 1.2×1.3×1.4 mm) were acquired to detect possible structural abnormalities, and serve as an anatomical reference to define ROIs when co-registered with the PET scan. To correct for attenuation, a Zero-Echo Time (ZTE) scan was taken to allow the generation of a MR based attenuation map. At intermediate time points during acquisition, the ZTE sequence was repeated to have additional data for adjusting the MR based attenuation map in case of severe head motion. Next to anatomical MR sequences, eASL and rs-fMRI data were acquired simultaneously with the PET data, to determine regional cerebral blood flow and regional interactions in the brain in a resting or task-negative state. At least one eASL and one rs-fMRI sequence were performed during the PET acquisition but these sequences were repeated if time allowed. The total duration of the emission scan was 90 minutes. PET data will be rebinned in time frames according to the following scheme: • 6×15s-3×30s-3×60s-2×90s-2×3 min-9×5 min-3×10 min […]

[2] = treatment-emergent adverse events, multiple dose study in young male subjects; format: in vivo, human
Excerpt: Details on the adverse events occurring in the study is provided below. As may be seen the doses of interest were safe and well tolerated.

[3] = repeat dose pharmacokinetics in humans; format: in vivo, human; settings: once daily repeat dosing, all doses
SV2A = SV2A (Homo sapiens, UniProt Q7L0J3); test: SV2A binding in vitro, displacement of levetiracetam
Chain of SV2A (Q7L0J3 whole entry, species assumed): as the sequence (Q7L0J3 whole entry) above

receptor occupancy ([1]; 1 mg single oral dose, 22 h): below level of detection
receptor occupancy ([1]; 1 mg single oral dose, tmax (2 h)): 25% and 21%
receptor occupancy ([1]; 2 mg single oral dose, 22 h): 19% and 20%
receptor occupancy ([1]; 2 mg single oral dose, tmax (2 h)): 42% and 39%
receptor occupancy ([1]; 10 mg single oral dose, 22 h): 46% and 50%
receptor occupancy ([1]; 10 mg single oral dose, tmax (2 h)): 68% and 69%
receptor occupancy ([1]; 20 mg single oral dose, 26 h): 56% and 66%
receptor occupancy ([1]; 20 mg single oral dose, tmax (2 h)): 76%
emax of PK/occupancy model (mean) ([1]; humans): 84.9
EC50 ([1]; humans, plasma concentration, read-out: EC50, plasma concentration vs SV2A occupancy (PK/occupancy model, mean) (converted)): 75.3 nM
time to reach steady state [3]: 8 to 10 days
affinity of binding to SV2A (levetiracetam site) (SV2A): high affinity
displacement of the binding of levetiracetam to SV2A (SV2A; in vitro): competitively displaces
Compound: O=C1C[C@H](c2cc(F)c(F)c(F)c2)CN1Cn1ncnc1Cl [compound of example 1, (4R)-1-[(5-chloro-1H-1,2,4-triazol-1-yl)methyl]-4-(3,4,5-trifluorophenyl)pyrrolidin-2-one]
At least 1 TEAE definitively related to treatment, n (%) ([2]; 5 mg, N = 6): 0 n (%)
At least 1 TEAE possibly related to treatment, n (%) ([2]; 5 mg, N = 6): 0 n (%)
At least 1 TEAE probably related to treatment, n (%) ([2]; 5 mg, N = 6): 0 n (%)
At least one TEAE, n (%) ([2]; 5 mg, N = 6): 0 n (%)
At least 1 TEAE definitively related to treatment, n (%) ([2]; 10 mg, N = 6): 0 n (%)
At least 1 TEAE possibly related to treatment, n (%) ([2]; 10 mg, N = 6): 0 n (%)
At least 1 TEAE probably related to treatment, n (%) ([2]; 10 mg, N = 6): 1 (16.7) n (%)
At least one TEAE, n (%) ([2]; 10 mg, N = 6): 2 (33.3) n (%)
At least 1 TEAE definitively related to treatment, n (%) ([2]; 20 mg, N = 6): 0 n (%)
At least 1 TEAE possibly related to treatment, n (%) ([2]; 20 mg, N = 6): 4 (66.7) n (%)
At least 1 TEAE probably related to treatment, n (%) ([2]; 20 mg, N = 6): 0 n (%)
At least one TEAE, n (%) ([2]; 20 mg, N = 6): 4 (66.7) n (%)
At least 1 TEAE definitively related to treatment, n (%) ([2]; all doses, N = 18): 0 n (%)
At least 1 TEAE possibly related to treatment, n (%) ([2]; all doses, N = 18): 4 (22.2) n (%)
At least 1 TEAE probably related to treatment, n (%) ([2]; all doses, N = 18): 1 (5.6) n (%)
At least one TEAE, n (%) ([2]; all doses, N = 18): 6 (33.3) n (%)
